According to ChEMBL document CHEMBL1201862, “PubChem BioAssay data set” (2004):
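Five concentrations, 48 hours, 96-well plates. GI50 is the concentration that inhibits growth by half.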 The source made the active and inactive calls. Cut-off read from the data, not from the text of the source: active = GI50 up to about 1.1 µM and inactive = higher.

Columns and labels:
Experiment in all cases: NCI-60 cell line screen, 48 h
TK-10 = system: TK-10
COLO 205 = system: COLO 205
IGROV-1 = system: IGROV-1
SK-MEL-2 = system: SK-MEL-2
ACHN = system: ACHN
LOX IMVI = system: LOX IMVI
CAKI-1 = system: CAKI-1
HCT-15 = system: HCT-15
M19-MEL = system: M19-MEL
RXF 393 = system: RXF 393
SNB-19 = system: SNB-19
SW-620 = system: SW-620
NCI-H226 = system: NCI-H226
DMS-114 = system: DMS-114
SK-MEL-5 = system: SK-MEL-5
SK-MEL-28 = system: SK-MEL-28
KM12 = system: KM12
EKVX = system: EKVX
HL-60 = system: HL-60
HOP-92 = system: HOP-92

Cc1cc2cccc(Cl)c2nc1C(=O)c1ccccc1
GI50 (TK-10): > 100 µM (inactive)
GI50 (COLO 205): > 100 µM (inactive)
GI50 (IGROV-1): > 100 µM (inactive)
GI50 (SK-MEL-2): > 100 µM (inactive)
GI50 (ACHN): > 100 µM (inactive)
GI50 (LOX IMVI): 94.4 µM (inactive)
GI50 (CAKI-1): > 100 µM (inactive)
GI50 (HCT-15): > 100 µM
GI50 (M19-MEL): > 100 µM (inactive)
GI50 (RXF 393): 26.6 µM (inactive)
GI50 (SNB-19): 70.3 µM (inactive)
GI50 (SW-620): > 100 µM (inactive)
GI50 (NCI-H226): > 100 µM (inactive)
GI50 (DMS-114): > 100 µM (inactive)
GI50 (SK-MEL-5): > 100 µM (inactive)
GI50 (SK-MEL-28): > 100 µM (inactive)
GI50 (KM12): > 100 µM (inactive)

NC(=O)C(=O)N/N=C1/c2ccccc2CC1C1(O)C(=O)Nc2c(Cl)cc(Cl)cc21 (stereo not drawn)
GI50 (TK-10): > 100 µM (inactive)
GI50 (EKVX): > 100 µM (inactive)
GI50 (COLO 205): > 100 µM (inactive)
GI50 (IGROV-1): > 100 µM (inactive)
GI50 (HL-60): > 100 µM (inactive)
GI50 (SK-MEL-2): > 100 µM (inactive)
GI50 (ACHN): > 100 µM (inactive)
GI50 (LOX IMVI): 88.3 µM (inactive)
GI50 (CAKI-1): 81.8 µM (inactive)
GI50 (HCT-15): > 100 µM
GI50 (M19-MEL): > 100 µM (inactive)
GI50 (RXF 393): 92 µM (inactive)
GI50 (SNB-19): > 100 µM (inactive)
GI50 (SW-620): > 100 µM (inactive)
GI50 (NCI-H226): > 100 µM (inactive)
GI50 (DMS-114): > 100 µM (inactive)
GI50 (SK-MEL-5): > 100 µM (inactive)
GI50 (SK-MEL-28): > 100 µM (inactive)
GI50 (HOP-92): > 100 µM (inactive)
GI50 (KM12): > 100 µM (inactive)

CCOC(=O)C1C(c2cc(OC)c(O)c(OC)c2)c2cc3c(cc2OC1(C)O)OCO3 (stereo not drawn)
GI50 (TK-10): > 100 µM (inactive)
GI50 (EKVX): > 100 µM (inactive)
GI50 (COLO 205): > 100 µM (inactive)
GI50 (IGROV-1): > 100 µM (inactive)
GI50 (HL-60): > 100 µM (inactive)
GI50 (SK-MEL-2): > 100 µM (inactive)
GI50 (ACHN): 55.2 µM (inactive)
GI50 (LOX IMVI): 93.1 µM (inactive)
GI50 (CAKI-1): 26 µM (inactive)
GI50 (HCT-15): 46.6 µM
GI50 (M19-MEL): 66.4 µM (inactive)
GI50 (SNB-19): > 100 µM (inactive)
GI50 (SW-620): 42.9 µM (inactive)
GI50 (SK-MEL-5): 36 µM (inactive)
GI50 (SK-MEL-28): 60.7 µM (inactive)
GI50 (HOP-92): 11.5 µM (inactive)

CC(=O)OC1C=C(C=O)C(O)(C=O)C2(C)CCCC(C)(C)C12 (stereo not drawn)
GI50 (EKVX): 2.65 µM (inactive)
GI50 (COLO 205): 0.859 µM (active)
GI50 (IGROV-1): 2.49 µM (inactive)
GI50 (HL-60): 0.249 µM (active)
GI50 (SK-MEL-2): 2.86 µM (inactive)
GI50 (LOX IMVI): 0.942 µM (active)
GI50 (CAKI-1): 1 µM (active)
GI50 (HCT-15): 0.6 µM
GI50 (M19-MEL): 1.23 µM (inactive)
GI50 (RXF 393): 0.491 µM (active)
GI50 (SNB-19): 5.6 µM (inactive)
GI50 (SW-620): 0.485 µM (active)
GI50 (NCI-H226): 2.69 µM (inactive)
GI50 (DMS-114): 0.927 µM (active)
GI50 (SK-MEL-5): 1.17 µM (inactive)
GI50 (SK-MEL-28): 1.05 µM (active)
GI50 (HOP-92): 1.05 µM (active)
GI50 (KM12): 2.31 µM (inactive)

COc1ccc(C2C(=O)C(Cl)N2Nc2nc(C)cc(O)n2)cc1OC (stereo not drawn)
GI50 (TK-10): 43.6 µM (inactive)
GI50 (EKVX): 56.8 µM (inactive)
GI50 (COLO 205): 51.2 µM (inactive)
GI50 (IGROV-1): 10.9 µM (inactive)
GI50 (HL-60): 13.9 µM (inactive)
GI50 (SK-MEL-2): 22.6 µM (inactive)
GI50 (ACHN): 19.4 µM (inactive)
GI50 (LOX IMVI): 18.1 µM (inactive)
GI50 (HCT-15): 20.2 µM
GI50 (M19-MEL): 42.3 µM (inactive)
GI50 (RXF 393): 25.2 µM (inactive)
GI50 (SNB-19): 40.5 µM (inactive)
GI50 (SW-620): 45.3 µM (inactive)
GI50 (SK-MEL-5): 29.3 µM (inactive)
GI50 (SK-MEL-28): 43.3 µM (inactive)
GI50 (HOP-92): 25.5 µM (inactive)
GI50 (KM12): 39.6 µM (inactive)

CCCCCCCCC1=CCC(CN(C)C)C1=O (stereo not drawn)
GI50 (EKVX): 23.6 µM (inactive)
GI50 (COLO 205): 18.8 µM (inactive)
GI50 (IGROV-1): 19.4 µM (inactive)
GI50 (HL-60): 12 µM (inactive)
GI50 (SK-MEL-2): 21.3 µM (inactive)
GI50 (LOX IMVI): 16.6 µM (inactive)
GI50 (HCT-15): 17.8 µM
GI50 (M19-MEL): 17.8 µM (inactive)
GI50 (RXF 393): 19.7 µM (inactive)
GI50 (SNB-19): > 55.2 µM (inactive)
GI50 (SW-620): 19.9 µM (inactive)
GI50 (NCI-H226): > 51.4 µM (inactive)
GI50 (DMS-114): 18.7 µM (inactive)
GI50 (SK-MEL-5): 20.1 µM (inactive)
GI50 (SK-MEL-28): 20.1 µM (inactive)
GI50 (HOP-92): 16.9 µM (inactive)
GI50 (KM12): 15.1 µM (inactive)

CCCOC(=O)CNC(=O)OC(C)(C)C
GI50 (TK-10): > 100 µM (inactive)
GI50 (EKVX): > 100 µM (inactive)
GI50 (COLO 205): > 100 µM (inactive)
GI50 (IGROV-1): > 100 µM (inactive)
GI50 (HL-60): > 100 µM (inactive)
GI50 (SK-MEL-2): > 100 µM (inactive)
GI50 (ACHN): > 100 µM (inactive)
GI50 (LOX IMVI): > 100 µM (inactive)
GI50 (CAKI-1): > 100 µM (inactive)
GI50 (HCT-15): > 100 µM
GI50 (M19-MEL): > 100 µM (inactive)
GI50 (RXF 393): > 100 µM (inactive)
GI50 (SNB-19): > 100 µM (inactive)
GI50 (SW-620): > 100 µM (inactive)
GI50 (NCI-H226): > 100 µM (inactive)
GI50 (DMS-114): > 100 µM (inactive)
GI50 (SK-MEL-5): > 100 µM (inactive)
GI50 (SK-MEL-28): > 100 µM (inactive)
GI50 (HOP-92): > 100 µM (inactive)
GI50 (KM12): > 100 µM (inactive)

CC(C)C1=CC2=CC[C@@H]3[C@](C)(CCC[C@@]3(C)C(=O)O)[C@H]2CC1 [ABIETIC ACID]
GI50 (TK-10): > 66.4 µM (inactive)
GI50 (EKVX): 42.6 µM (inactive)
GI50 (COLO 205): 40.3 µM (inactive)
GI50 (IGROV-1): 57.5 µM (inactive)
GI50 (HL-60): > 50.5 µM (inactive)
GI50 (SK-MEL-2): > 50.9 µM (inactive)
GI50 (ACHN): 53.8 µM (inactive)
GI50 (LOX IMVI): 58.6 µM (inactive)
GI50 (CAKI-1): 36.2 µM (inactive)
GI50 (HCT-15): 43.4 µM
GI50 (M19-MEL): 59 µM (inactive)
GI50 (RXF 393): > 62.1 µM (inactive)
GI50 (SNB-19): > 67.1 µM (inactive)
GI50 (SW-620): 45.8 µM (inactive)
GI50 (NCI-H226): 49.2 µM (inactive)
GI50 (DMS-114): 58.9 µM (inactive)
GI50 (SK-MEL-5): 60.5 µM (inactive)
GI50 (SK-MEL-28): > 59.3 µM (inactive)
GI50 (HOP-92): 37.2 µM (inactive)
GI50 (KM12): 37.8 µM (inactive)

CC(C)=CCc1c(O)ccc2ccc(=O)oc12 [OSTHENOL]
GI50 (EKVX): 51.6 µM (inactive)
GI50 (COLO 205): > 100 µM (inactive)
GI50 (IGROV-1): > 68.5 µM (inactive)
GI50 (HL-60): 28.2 µM (inactive)
GI50 (SK-MEL-2): 45.7 µM (inactive)
GI50 (LOX IMVI): 51.5 µM (inactive)
GI50 (CAKI-1): > 61.5 µM (inactive)
GI50 (HCT-15): 60.1 µM
GI50 (M19-MEL): 47.1 µM (inactive)
GI50 (RXF 393): 38.5 µM (inactive)
GI50 (SNB-19): > 51.9 µM (inactive)
GI50 (SW-620): > 100 µM (inactive)
GI50 (NCI-H226): 47.6 µM (inactive)
GI50 (DMS-114): 27.9 µM (inactive)
GI50 (SK-MEL-5): 15.3 µM (inactive)
GI50 (SK-MEL-28): 49.4 µM (inactive)
GI50 (HOP-92): 38.4 µM (inactive)
GI50 (KM12): > 75.5 µM (inactive)
